What was measured:
NPC patients = test: Observational clinical study of adult NPC patients treated with ADLL; format: in vivo, human
Description: Progression of a LSD or one or more symptoms of a LSD over time or through treatment can be monitored, for example, using one or more known tests at two or more time points and comparing the results. Disease progression and/or severity can be assessed, for example, using the Scale for the Assessment and Rating of Ataxia (SARA), Spinocerebellar Ataxia Functional Index (SCAFI), the International Cooperative Ataxia Rating Scale (ICARS), the brief ataxia rating scale (BARS), the modified Disability Rating Scale (mDRS), EuroQol 5Q-5D-5L (EQ-5D-5L), the visual analogue scale (VAS), Wechsler Adult Intelligence Scale-Revised (WAIS-R), Wechsler Intelligence Scale for Children-IV (WISC-IV), Montreal Cognitive Assessment (MoCA) or other suitable tests. For certain LSDs, such as NPC, particular scores have been developed and validated over the last decades, for instance the clinical severity score (CSS) and annual severity increment score (ASIS) (see Yanjanin et al., “Linear Clinical Progression, Independent of Age of Onset, in Niemann—Pick Disease, Type C,” Am J Med Genet Part B 153B:132-140) and the modified 6-Domain NP-C disability Scale (mDRS score). For example, an NPC patient's severity can be quantified by assigning a CSS, which assesses various parameters of the disease (ambulation, seizures, eye movement, etc.) and gives each parameter a score out of 5. A higher score equals a greater severity. The ASIS quantifies the annual rate of change in the CSS, calculated by dividing the CSS by the patient's age. In this regard, certain scores in these tests are characteristic of symptomatic LSD patients and evidence disease progression and/or severity.
Demographics and statistical analysis of a clinical observational study of adult NPC patients treated with ADLL: The cohort comprised 3 females and 10 males. Consent from all participants was obtained. Twelve of the NPC patients were on miglustat therapy (minimum exposure 2.65, 1t^st quartile 3.44, median 4.92, mean 4.87, 3rd quartile 5.80 and maximum 7.98 years). The thirteen NPC1 patients participated in an observational study treated with 5 g/day acetyl-DL-leucine (Tanganil™). Three patients had four prospective clinical severity score measurements and ten patients had five measurements taken during this observational study (NIH, CSS). Retrospective data were used to calculate rates of disease progression prior to recruitment to this study. The mean age at the start of acetyl-DL-leucine (Tanganil™) treatment was 26.59 years. The minimum age was 15.44, 1s^t quartile 20.97, median 26.98 and third quartile 30.79 with maximum age 37.37 years. The time in the observational treatment study was a […], 1st quartile 0.81, median 1, mean 0.95, third quartile 1.13 and maximum 1.21 years.

Sandhoff (Hexb^−/−) mice = test: Survival of Sandhoff (Hexb−/−) mice; format: in vivo, mouse; conditions: Hexb−/− mice treated from weaning, 0.1 g/kg/day
Procedure: BALBc/NPC ^h and Sandhoff mice were bred as heterozygotes to generate affected mice (Npc1^−/−, Hexb^−/−) and controls (Npc^+/+, Hexb^+/+). The mice were housed under non-sterile conditions, with food and water available ad libitum. All experiments were conducted using protocols approved by the UK Home Office Animal Scientific Procedures Act, 1986.
[…] Treatment groups for in vivo study consisted of at least 5 mice per group. In vitro studies were conducted with each compound dissolved in PBS to generate a 50 mM stock solution and diluted to a 1 mM working concentration in media (DMEM High Glucose-Gibco #10566016).
The weight and activity of each mouse was recorded weekly until reaching the humane endpoint (defined as a loss of 1 g body weight within 24 h). Gait analysis was performed using CatWalk 10.5 system (Noldus) according to the manufacturer's instructions and five runs were recorded per animal at each time point. The camera was set to 40 cm below the walkway, the walkway was approximately 4 cm wide, and detection settings set to camera gain 14.05 and green intensity 0.12. Motor function was measured using an accelerating NG Rota Rod for mice (Ugo Basile) starting from 1 rpm to 10 rpm, accelerating every 30 seconds by one rpm. […] Latency to cross or fall from the bar was scored, with 120 sec, maximum, to termination of each trial. […]

[1] = number of the 13 treated NPC patients, neurological subdomain

Structure (SMILES): CC(=O)NC(CC(C)C)C(=O)O (racemic) [ADLL, N-acetyl-DL-leucine]
- mean change in Annual Severity Increment Scores (ASIS) (NPC patients; 13 NPC patients): −9.1 %/year
- average slope of disease progression (total clinical severity score) following initiation of treatment (NPC patients; 13 adult NPC patients, 5 g/day, 12 also on miglustat, average slope before treatment 1.8): −1.78 severity units/year
- Ambulation: Deteriorated (NPC patients; [1]): 1
- Ambulation: Improved (NPC patients; [1]): 8
- Ambulation: Stable (NPC patients; [1]): 4
- Cognition: Deteriorated (NPC patients; [1]): 1
- Cognition: Improved (NPC patients; [1]): 6
- Cognition: Stable (NPC patients; [1]): 6
- Eye movement: Deteriorated (NPC patients; [1]): 1
- Eye movement: Improved (NPC patients; [1]): 8
- Eye movement: Stable (NPC patients; [1]): 4
- Fine motor skills: Deteriorated (NPC patients; [1]): 2
- Fine motor skills: Improved (NPC patients; [1]): 8
- Fine motor skills: Stable (NPC patients; [1]): 3
- Memory: Deteriorated (NPC patients; [1]): 1
- Memory: Improved (NPC patients; [1]): 10
- Memory: Stable (NPC patients; [1]): 2
- Speech: Deteriorated (NPC patients; [1]): 3
- Speech: Improved (NPC patients; [1]): 3
- Speech: Stable (NPC patients; [1]): 7
- Swallow: Deteriorated (NPC patients; [1]): 1
- Swallow: Improved (NPC patients; [1]): 10
- Swallow: Stable (NPC patients; [1]): 2
- patients with negative slopes following initiation of treatment (NPC patients; of 13 NPC patients): 10
- patients with no slope following initiation of treatment (NPC patients; of 13 NPC patients): 3
- median increase in lifespan (Sandhoff (Hexb^−/−) mice): 8 days
